The source of these data is patent US7442714B2, “Amlodipine gentisate and a method of its preparation” (SK Chemicals Co., Ltd., priority 2003, dated 2008).

Where a name gives a salt, the structure may show the parent alone.

Series [1] can be described thus: Test for stability: HPLC content of active ingredient after storage at temperature and humidity. Type of series: physicochemical. An excerpt:
This experiment is designed to confirm the stability of amlodipine salt. It is essential for a drug to have sufficient stability in order to be formulated into a specific form of preparation. In particular, it is especially important to have an atmospheric stability for a drug to be formulated into tablets or capsules while aqueous stability is more important when a drug is formulated into an injection type of preparation.

The nature of series [2]: Light stability (UV). Type of series: physicochemical. An excerpt:
Table 4 represents the result of light stability of amlodipine gentisate salts of the present invention compared to that of amlodipine besylate and the total amount of UV light was 200 W·h/m^2.

The subject of series [3] is Rats with congenital hypertension (SHR). The experiment in a line: Anti-hypertension activity, tail-cuff method. The format is in vivo, rat. The note with it: oral. The protocol: Rats with congenital hypertension (SHR, male, 13-14 weeks old) were purchased from Charles River Co. (Japan). […] SHR were used those having systolic blood pressure of 170 mmHg or higher and each experimental group was composed of 8 rats. Blood pressure was measured using Multichannel 8000 (TSE Co., Germany) according to the tail-cuff method. […] […] The result of measurements was indicated in S.E.M. Statistical analysis of the measurements was performed by using Sigma Stat program (Jandel Co., USA) with respect to unpaired t-test and one-way analysis of variance (ANOVA) and the second evaluation was performed via Dunnett multiple comparisons test.

In series [4] the test system is rat. Particulars: oral; cited from earlier work.
For series [5], the system named is wild bird. The note with it: oral; cited from earlier work.
For series [6] the following is noted: Sprague-Dawley (printed: Sprague Dowry), rat, in vivo, po, 10 mg/kg.
Experimental: The blood samples were centrifuged for 2 min at 14,000 rpm to obtain blood plasma. 80 μL of the blood plasma was mixed with 240 μL of methanol and vortexed for 10 sec and centrifuged again for 2 min at 14,000 rpm.
Setting [7] is: UV, total amount of UV light 200 W·h/m^2.

`CCOC(=O)C1=C(COCCN)NC(C)=C(C(=O)OC)C1c1ccccc1Cl.O=S(=O)(O)c1ccccc1` (racemic) [(±)-amlodipine besylate]: the “Content of active ingredients at 40° C. with 75% humidity” value (shortened to “Content … at 40° C. with 75% humidity”) in series [1] (2 weeks) was 99.9%; in series [1] (4 weeks) it was 99.8%; in series [1] (8 weeks), 99.2%; in series [1] (initial), 100%. In addition, the “Content of active ingredients at 60° C. with 75% humidity” value (shortened to “Content … at 60° C. with 75% humidity”) stood at 98.7% in series [1] (2 weeks), 97.4% in series [1] (4 weeks), 98.1% in series [1] (8 weeks) and 100% in series [1] (initial). Moreover, the “Content of active ingredients” value is recorded as 88.3% in series [2] (setting [7]) and 100% in series [2] (initial). Moreover, the “Time after administration at which a significant decrease in blood pressure started” value in series [3] stood at 30 min. The “Time after administration at which the decrease in blood pressure reached the peak” value in series [3] came to 1 h. Further, the “Time after administration until which the anti-hypertension effect was significant” value in series [3] is 6 h. Further, the entries for the “Decrease in Blood Pressure (maximum anti-hypertension effect)” value in series [3] (2.5 mg/kg) and in series [3] (5.0 mg/kg) were 20.8±7.3% and 28.6±7.5%, respectively.

As for `O=S(=O)(O)c1ccccc1` [Benzenesulfonic acid, benzenesulfonic acid], the figures for the LD50 in series [4] and in series [5] were 890 µL/kg and 75 mg/kg, respectively.

Turning to `CCOC(=O)C1=C(COCCN)NC(C)=C(C(=O)OC)[C@@H]1c1ccccc1Cl.O=S(=O)(O)c1ccccc1` [S-(−)-amlodipine besylate], the “Content … at 40° C. with 75% humidity” value in series [1] (2 weeks) was 101.1%; in series [1] (4 weeks) it was 101.7%; in series [1] (8 weeks), 101.6%; in series [1] (initial), 100%. Besides, the “Content … at 60° C. with 75% humidity” value in series [1] (2 weeks) was 100.1%; in series [1] (4 weeks) it was 98.5%; in series [1] (8 weeks) it was 96.3%; in series [1] (initial), 100%. For the same compound, the results for the “Content of active ingredients” value in series [2] (setting [7]) and in series [2] (initial) were 90.1% and 100%, respectively.

Turning to `CCOC(=O)C1=C(COCCN)NC(C)=C(C(=O)OC)[C@@H]1c1ccccc1Cl` [S-(−)-amlodipine gentisate, (S)-(−)-Amlodipine Gentisate Salt], the “Content … at 40° C. with 75% humidity” value in series [1] (2 weeks) came to 102.9%; in series [1] (4 weeks), 103.5%; in series [1] (8 weeks), 102.3%; in series [1] (initial) it was 100%. For the same compound, the “Content … at 60° C. with 75% humidity” value was found to be 100.1% in series [1] (2 weeks), 103.0% in series [1] (4 weeks), 99.9% in series [1] (8 weeks) and 100% in series [1] (initial). The “Content of active ingredients” value was determined as 100.7% in series [2] (setting [7]) and 100% in series [2] (initial). The “Light stability compared to conventional amlodipine besylate salts” value in series [2] (under UV or visible light) is “superior light stability”. Also, the “Time after administration at which a significant decrease in blood pressure started” value in series [3] is 30 min. Also, the “Time after administration at which the decrease in blood pressure reached the peak” value in series [3] was found to be 1 h. For the same compound, the “Time after administration until which the anti-hypertension effect was significant” value in series [3] turned out to be 6 h. The “Decrease in Blood Pressure (maximum anti-hypertension effect)” value is given as 19.8±5.5% in series [3] (1.25 mg/kg) and 24.5±7.9% in series [3] (2.5 mg/kg). For the same compound, the “Period of highest concentration in blood after administration” value in series [6] was 4 to 6 h.
